Results reported in the supplement of paper PMC10307832.

What was measured:
Assay in all cases: relative viability (nuclei count vs DMSO), 5 days (fraction); higher = more cells survive
Imatinib + Palbociclib = compound: Cc1ccc(NC(=O)c2ccc(CN3CCN(C)CC3)cc2)cc1Nc1nccc(-c2cccnc2)n1 [Imatinib] + CC(=O)c1c(C)c2cnc(Nc3ccc(N4CCNCC4)cn3)nc2n(C2CCCC2)c1=O [Palbociclib] (partner 0.5 µM)
Procedure, shortened: (§1)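 The day after seeding in 1536-well plates, lung cancer cell lines were treated by pin tool with a single drug, or with a fixed anchor-drug dose together with five library-drug doses (not always all listed) in √10 steps. After 5 days, a combined fix-and-stain solution (final 0.05% Triton X-100, 1% formaldehyde, 1 ug/ml Hoechst) was added. Nuclei counted on 4× images gave relative viability as treated counts over vehicle counts, reported as the median of duplicate plates.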

Imatinib + Navitoclax = compound: Cc1ccc(NC(=O)c2ccc(CN3CCN(C)CC3)cc2)cc1Nc1nccc(-c2cccnc2)n1 [Imatinib] + CC1(C)CCC(c2ccc(Cl)cc2)=C(CN2CCN(c3ccc(C(=O)NS(=O)(=O)c4ccc(N[C@H](CCN5CCOCC5)CSc5ccccc5)c(S(=O)(=O)C(F)(F)F)c4)cc3)CC2)C1 [Navitoclax] (partner 0.5 µM)
Procedure, shortened: as §1

Imatinib + Linsitinib = compound: Cc1ccc(NC(=O)c2ccc(CN3CCN(C)CC3)cc2)cc1Nc1nccc(-c2cccnc2)n1 [Imatinib] + C[C@]1(O)C[C@@H](c2nc(-c3ccc4ccc(-c5ccccc5)nc4c3)c3c(N)nccn32)C1 [Linsitinib] (partner 1 µM)
Procedure, shortened: as §1

Imatinib + Tozasertib = compound: Cc1ccc(NC(=O)c2ccc(CN3CCN(C)CC3)cc2)cc1Nc1nccc(-c2cccnc2)n1 [Imatinib] + Cc1cc(Nc2cc(N3CCN(C)CC3)nc(Sc3ccc(NC(=O)C4CC4)cc3)n2)n[nH]1 [Tozasertib] (partner 0.1 µM)
Procedure, shortened: as §1

Row | Cell Line | relative viability (Imatinib + Palbociclib; first compound 0.02 µM) | relative viability (Imatinib + Palbociclib; first compound 0.06325 µM) | relative viability (Imatinib + Palbociclib; first compound 0.2 µM) | relative viability (Imatinib + Palbociclib; first compound 0.6325 µM) | relative viability (Imatinib + Palbociclib; first compound 2 µM) | relative viability (Imatinib + Navitoclax; first compound 0.02 µM) | relative viability (Imatinib + Navitoclax; first compound 0.06325 µM) | relative viability (Imatinib + Navitoclax; first compound 0.2 µM) | relative viability (Imatinib + Navitoclax; first compound 0.6325 µM) | relative viability (Imatinib + Navitoclax; first compound 2 µM) | relative viability (Imatinib + Linsitinib; first compound 0.02 µM) | relative viability (Imatinib + Linsitinib; first compound 0.06325 µM) | relative viability (Imatinib + Linsitinib; first compound 0.2 µM) | relative viability (Imatinib + Linsitinib; first compound 0.6325 µM) | relative viability (Imatinib + Linsitinib; first compound 2 µM) | relative viability (Imatinib + Tozasertib; first compound 0.02 µM) | relative viability (Imatinib + Tozasertib; first compound 0.06325 µM) | relative viability (Imatinib + Tozasertib; first compound 0.2 µM) | relative viability (Imatinib + Tozasertib; first compound 0.6325 µM) | relative viability (Imatinib + Tozasertib; first compound 2 µM)
1 | NCI-H838 | 0.254 | 0.255 | 0.241 | 0.254 | 0.247 | 1.34 | 1.54 | 1.34 | 1.14 | 1.28 | 1.12 | 1.37 | 1.3 | 1.03 | 1.02 | 0.241 | 0.318 | 0.28 | 0.307 | 0.275
2 | NCI-H1355 | 0.433 | – | 0.426 | 0.398 | 0.39 | 1.06 | – | 0.99 | 0.922 | 0.947 | 0.865 | – | 0.846 | 0.841 | 0.871 | 0.589 | – | 0.51 | 0.395 | 0.349
3 | NCI-H1395 | 0.622 | – | 0.579 | 0.526 | 0.589 | 1.07 | – | 1.04 | 0.979 | 0.989 | 0.978 | – | 1.04 | 1.02 | 0.975 | 0.679 | 0.773 | 0.76 | 0.663 | 0.7
4 | NCI-H1437 | 0.329 | 0.288 | 0.324 | 0.343 | 0.266 | 1.24 | 1.17 | 1.34 | 1.08 | 1.04 | – | 1.18 | 1.42 | – | 1.04 | 0.449 | 0.453 | 0.411 | 0.408 | 0.373
5 | NCI-H1651 | 0.478 | 0.543 | 0.564 | 0.492 | 0.543 | 1.34 | 1.21 | – | 1.05 | 1.13 | 1.09 | 1.14 | 1.21 | 0.946 | 1.11 | 0.796 | 0.659 | 0.649 | 0.535 | 0.436
6 | NCI-H1666 | 0.678 | 0.628 | 0.642 | 0.705 | 0.621 | – | 1.16 | 1.06 | 1.1 | 1.06 | 0.718 | 0.849 | – | 0.986 | 0.857 | 0.622 | 0.623 | 0.603 | 0.665 | 0.574
7 | NCI-H1755 | 0.438 | 0.496 | 0.436 | 0.429 | 0.423 | 1.02 | 1.06 | 1.12 | 0.988 | 1.04 | 1.05 | 1.08 | – | 0.979 | 0.994 | 0.612 | 0.585 | 0.592 | 0.609 | 0.516
8 | NCI-H1793 | 0.293 | – | 0.315 | 0.291 | 0.307 | 0.378 | – | 0.409 | 0.362 | 0.513 | 1.09 | – | 1.06 | 0.96 | – | 0.309 | – | 0.328 | 0.223 | 0.28
9 | NCI-H1915 | 0.523 | – | 0.556 | 0.456 | 0.518 | 0.788 | – | 0.807 | 0.759 | 0.777 | 1.09 | – | 1.17 | 1.08 | 1.08 | 0.468 | – | 0.458 | 0.385 | 0.341
